Source: patent publication US10849898B2, “Treatment of relapsed and/or refractory solid tumors and non-Hodgkin's lymphomas” (CELGENE QUANTICEL RESEARCH, INC., priority 2016, dated 2020)
Where two headings read alike, the source gives them in different places.

Key:
[1] = Metabolism in cryopreserved primary hepatocytes; format: in vitro ADME; details: mouse, rat, dog, monkey, human
[2] = Hemodynamic and ECG parameters in anesthetized guinea pigs; format: in vivo, Dunkin Hartley guinea pigs
From the text: Animals were monitored throughout the experiment.

MKL-1 cells = assay: Modulation of gene expression by RNA-seq; format: cell-based, human
Description: Libraries were sequenced on an Illumina NextSeq® 500 System (Illumina, San Diego, Calif.) using 75 base paired-end RNA sequencing. Sequenced reads were mapped to the hg19 human genome build and differential expression was determined by analysis of variance across all replicates relative to the vehicle control.
Sequenced reads were mapped to the hg19 human genome build using the Spliced Transcripts Alignment to a Reference (STAR) software tool (OAlexander Dobin, 2009-2016) and transcript counts were normalized using the Empirical Analysis of Digital Gene Expression Data in R (edgeR) and Differential gene expression analysis based on the negative binomial distribution (DESeq2) software tools (OBioconductor, 2003-2017). Differential expression was determined by analysis of variance across all replicates relative to the vehicle control.

LXFS 573 SCLC PDX [3] = assay: Efficacy in LXFS 573 SCLC PDX model; format: in vivo, mice
MKL-1 hMCC xenograft = format: in vivo; details: 5 mg/kg PO 5 on/2 off
[4] = Exploratory toxicity study in mice; format: in vivo, CD-1 mice
From the text: Additional animals were included for TK evaluation.

[5] = Exploratory toxicity study in dogs
LU2527 lung NEC PDX = format: in vivo
hERG potassium channel = hERG potassium channel (Homo sapiens (Human), UniProt Q12809); details: hERG current
[6] = 4-week oral gavage pivotal toxicity study with 4-week recovery in dogs (with ECG and toxicokinetics); format: in vivo, Beagle dogs
Description: The QTc interval was calculated using the Fridericia method.

[7] = test system: Salmonella typhimurium TA98 and TA 100 strains; assay: Bacterial reverse mutation assay; format: cell-based; details: up to 500 μg/mL; with and without S9
LU2514 SCLC PDX = assay: Efficacy in LU2514 HuPrime SCLC patient derived xenograft; format: in vivo, mice; details: both LU2514 studies
Description: Tumor growth inhibition analysis was performed on Day 28 post treatment, the last day of dosing.

[8] = Pharmacokinetics after IV and oral administration; format: in vivo, CD-1 mice; details: Mouse, female, single IV 5 mg base/kg
From the text: (§1) Human PK parameters and exposures were predicted using allometric scaling. Mice and dogs were the species used for nonclinical toxicology assessment. […] Excretion of non-radiolabeled Compound A was studied in rats.

[9] = Pharmacokinetics after IV and oral administration; format: in vivo, Sprague Dawley rats; details: rats
From the text: as §1

[10] = Excretion in bile duct cannulated rats; format: in vivo; details: IV
MS-1 hMCC xenograft = format: in vivo; details: 5 mg/kg PO 5 on/2 off
LXFS 573 SCLC PDX [11] = details: for SS, number of study survivors: Day 133, N=8
GA0087 gastric NEC PDX = format: in vivo
NCI-H1417 SCLC xenograft [12] = assay: Efficacy in NCI-H1417 SCLC xenograft model (athymic nude mice); format: in vivo
NCI-H1417 SCLC xenograft [13] = details: 24 mg/kg Etoposide SC QD × 3
[14] = Etoposide at 24 mg/kg/day SC days 1-3 + Vehicle

Chain of hERG potassium channel (Q12809 whole entry): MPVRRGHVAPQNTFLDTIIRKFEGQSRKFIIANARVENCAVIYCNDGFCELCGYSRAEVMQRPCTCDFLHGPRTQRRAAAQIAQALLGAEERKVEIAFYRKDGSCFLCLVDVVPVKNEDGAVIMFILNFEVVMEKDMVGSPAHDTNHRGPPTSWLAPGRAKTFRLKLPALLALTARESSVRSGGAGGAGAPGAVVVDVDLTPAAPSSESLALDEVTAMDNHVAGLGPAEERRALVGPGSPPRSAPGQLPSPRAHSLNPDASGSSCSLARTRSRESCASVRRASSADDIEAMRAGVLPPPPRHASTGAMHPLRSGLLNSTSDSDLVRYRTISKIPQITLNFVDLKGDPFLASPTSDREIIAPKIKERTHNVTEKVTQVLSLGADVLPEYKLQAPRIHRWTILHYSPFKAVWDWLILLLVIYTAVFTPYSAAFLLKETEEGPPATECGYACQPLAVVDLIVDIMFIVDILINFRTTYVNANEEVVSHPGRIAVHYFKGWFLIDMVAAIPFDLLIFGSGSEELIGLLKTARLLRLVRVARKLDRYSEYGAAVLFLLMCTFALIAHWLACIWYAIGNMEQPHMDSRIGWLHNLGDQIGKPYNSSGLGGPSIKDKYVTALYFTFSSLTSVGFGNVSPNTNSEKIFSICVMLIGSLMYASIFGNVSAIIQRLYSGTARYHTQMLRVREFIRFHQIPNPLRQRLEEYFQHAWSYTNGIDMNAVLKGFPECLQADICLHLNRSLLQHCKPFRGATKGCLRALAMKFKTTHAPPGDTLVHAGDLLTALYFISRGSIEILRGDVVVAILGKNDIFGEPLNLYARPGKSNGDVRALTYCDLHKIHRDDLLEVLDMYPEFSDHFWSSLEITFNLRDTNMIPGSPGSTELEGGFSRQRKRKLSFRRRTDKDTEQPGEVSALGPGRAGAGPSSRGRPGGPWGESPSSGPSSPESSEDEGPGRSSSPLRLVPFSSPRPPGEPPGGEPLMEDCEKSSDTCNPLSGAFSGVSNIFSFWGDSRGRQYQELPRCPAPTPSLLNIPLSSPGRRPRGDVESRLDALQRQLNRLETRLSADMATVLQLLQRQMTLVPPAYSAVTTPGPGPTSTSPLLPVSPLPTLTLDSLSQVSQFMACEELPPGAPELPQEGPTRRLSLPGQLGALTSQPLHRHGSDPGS

In the case of COc1ccc(-c2c(-c3ccc(C#N)c(F)c3)nc(N3CCC(N)CC3)n(C)c2=O)cc1F [Compound A, 4-[2-(4-amino-piperidin-1-yl)-5-(3-fluoro-4-methoxy-phenyl)-1-methyl-6-oxo-1,6-dihydro-pyrimidin-4-yl]-2-fluoro-benzonitrile], the “metabolic stability in hepatocytes” value [1] is reported as “greater in rat and dog followed by human and monkeys while being least stable in mouse hepatocytes”, the “maximum suppression of HR vs vehicle” value ([2]; 20 mg base/kg IV, 9 minutes into 10-minute infusion) is reported as 19% and the “effect on MAP or its components” value ([2]; IV 5-20 mg base/kg vs time-matched vehicle) is reported as “No notable effect”. The “QTcB interval increase at end of monitoring period” value ([2]; after escalating IV doses) was 10%, the “downregulated genes changed in both hMCC lines at both concentrations (of 4303)” value (MKL-1 cells; MKL-1 and MS-1, 10 and 100 nM, 3 days) was 17 genes and the “ST18 and FREM2 gene expression change (upregulated, dose-dependent)” value (MKL-1 cells; both hMCC lines, 10 and 100 nM) was “at least 2 fold”. The “Median Tumor Volumes Day 1” value (LXFS 573 SCLC PDX [3]; 5 mg base/kg PO QD × 28) was 108.4 mm^3, the “TGI end of study (Day 28)” value (LXFS 573 SCLC PDX [3]; 5 mg base/kg oral) was 78% and the “Median Tumor Volumes Day 1” value (LXFS 573 SCLC PDX [3]; 7.5 mg base/kg PO QD × 28) was 113.2 mm^3. The “Median Tumor Volumes Day 1” value (LXFS 573 SCLC PDX [3]; 10 mg base/kg PO QD × 28) was 113.8 mm^3, the “Median Tumor Volumes Day −3” value (MKL-1 hMCC xenograft) was 65 mm^3 and the “increase in platelets on Day 8 vs end of first dosing period” value ([4]; 10 mg/kg/day 5 days on/2 days off) was greater than 2 fold. For the same compound, the “greatest reduction in neutrophil counts vs controls and pre-study values” ([4]; 5 days on/2 days off schedule) was “approximately 90%”, the “circulating platelets at end of study” value ([4]; all dose levels) was “reduced” and the “Compound A-related effects” value ([5]; 0.25 mg/kg/dose QOD) was “generally no Compound A-related effects”. The “body weight loss of moribund female” value ([5]; 0.5 mg/kg/day 5 days on/2 days off, Day 12) was 10.8%, the mortality ([5]; 0.5 mg/kg/day 5 days on/2 days off, one female, Day 12) was “sacrificed moribund” and the “Median Tumor Volumes Day 0” value (LU2527 lung NEC PDX; 1.5 mg base/kg PO QD × 46) was 148.2 mm^3. The “Median Tumor Volumes Day 0” value (LU2527 lung NEC PDX; 5 mg base/kg PO QD × 46) was 151.8 mm^3, the Hill coefficient (hERG potassium channel) was 1.2 and the animals euthanized moribund ([6]; 0.375 mg base/kg QW) was 1 male. For the same compound, the animals euthanized moribund ([6]; 0.75 mg base/kg QW) was 2 males and 1 female, the animals euthanized moribund ([6]; 1.5 mg base/kg QW) was 3 males and 4 females and the “recovery of findings after 4-week treatment-free period” value ([6]; dog, in vivo) was “complete recovery”. For the same compound, the animals euthanized moribund ([6]; weekly oral administration, study Days 13 to 23) was 11 animals, the mutagenicity [7] was “negative” and the “mean body weight losses” value (LU2514 SCLC PDX) was less than 10%. For the same compound, the clearance ([8]; CD-1, plasma) was 39 mL/min/kg, the Vss [8] was 7.31 L/kg and the systemic clearance [9] was “greater than liver blood flow”. For the same compound, the “dose excreted intact in urine” value ([10]; 24 hours) was 8.5 % of dose, the “dose excreted intact in 24 hours (urine + bile)” value ([10]; bile duct cannulated rats) was 26.3 % of the dose and the “Median Tumor Volumes Day −3” value (MS-1 hMCC xenograft) was 49 mm^3. For the same compound, the “tumor volume of survivor at study end” value (LXFS 573 SCLC PDX [11]; Compound A 1 mg/kg in combination with etoposide 24 mg/kg) was 1430 mm3, the “survivors on Day 133” value (LXFS 573 SCLC PDX [11]; Compound A 1 mg/kg in combination with etoposide 24 mg/kg, n=8) was 1 animals and the “MTV of survivors on Day 133” value (LXFS 573 SCLC PDX [11]; Compound A 2.5 mg/kg in combination with etoposide 24 mg/kg) was 1121 mm3. For the same compound, the “survivors on Day 133” value (LXFS 573 SCLC PDX [11]; Compound A 2.5 mg/kg in combination with etoposide 24 mg/kg, n=8) was 3 animals, the “MTV of survivors on Day 133” value (LXFS 573 SCLC PDX [11]; Compound A 5 mg/kg in combination with etoposide 24 mg/kg) was 121 mm3 and the “survivors on Day 133” value (LXFS 573 SCLC PDX [11]; Compound A 5 mg/kg in combination with etoposide 24 mg/kg, n=8) was 8 animals. The “Median TTE” value (LXFS 573 SCLC PDX [11]; Compound A at 5 mg/kg/day PO days 1-133) was 133 days, the “SS, number of study survivors” value (LXFS 573 SCLC PDX [11]; Compound A at 5 mg/kg/day) was 7 and the “study survivors on Day 133” value (LXFS 573 SCLC PDX [11]; Compound A monotherapy 5 mg/kg, n=8) was “seven”. For the same compound, the “Median Tumor Volumes Day 0” value (GA0087 gastric NEC PDX; Group 2, 1.5 mg base/kg PO QD × 53) was 128.9 mm^3, the “Median Tumor Volumes Day 0” value (GA0087 gastric NEC PDX; Group 3, dose printed 1.5 mg base/kg (text: 5 mg/kg) PO QD × 53) was 127.6 mm^3 and the “mean body weight gain by end of study” value (NCI-H1417 SCLC xenograft [12]; 2.5 mg base/kg PO QD×65) was 1%. For the same compound, the “mean body weight gain by end of study” value (NCI-H1417 SCLC xenograft [12]; 5 mg base/kg PO QD×65) was 7.5% and the tolerability (NCI-H1417 SCLC xenograft [12]; 2.5 or 5 mg base/kg PO QD×65) was “well tolerated”.

For COc1cc([C@@H]2c3cc4c(cc3[C@@H](O[C@@H]3O[C@@H]5CO[C@@H](C)O[C@H]5[C@H](O)[C@H]3O)[C@H]3COC(=O)[C@H]23)OCO4)cc(OC)c1O [Etoposide, etoposide, reference compound], the “% TGD” value (NCI-H1417 SCLC xenograft [13]) was 97%, the “Median TTE” value (NCI-H1417 SCLC xenograft [13]) was 50 days and the “T − C” value (NCI-H1417 SCLC xenograft [13]) was 24 days. For the same compound, the “SS, number of study survivors” value (LXFS 573 SCLC PDX [11]; Etoposide at 24 mg/kg/day + Vehicle) was 0 (na), the “Median TTE” value (LXFS 573 SCLC PDX [11]; [14]) was 63 days and the “T-C” value (LXFS 573 SCLC PDX [11]; [14]) was 21 days. The “% TGD” value (LXFS 573 SCLC PDX [11]; etoposide monotherapy 24 mg/kg) was 50%, the TGD (LXFS 573 SCLC PDX [11]; etoposide monotherapy 24 mg/kg) was 21 days and the “Median TTE” value (LXFS 573 SCLC PDX [11]; etoposide monotherapy 24 mg/kg SC daily Days 1-3) was 63 days.
